Patent publication US20050118262A1, “Controlled release formulation” (priority 2003, published 2005)

Experiment: Water solubility of selodenoson
Assay type: physicochemical

Structure (SMILES): CCNC(=O)[C@H]1O[C@@H](n2cnc3c(NC4CCCC4)ncnc32)[C@H](O)[C@@H]1O [selodenoson, N^6-cyclopentyl-5′-(N-ethyl)carboxamidoadenosine]
- solubility in water (water): soluble in water
- solubility in water under acidic conditions (water under acidic conditions): highly soluble in water under acidic conditions
